The values that follow come from ChEMBL document CHEMBL4190345, “Synthesis and biological evaluation of new substituted thioglycolurils, their analogues and derivatives” (Eur J Med Chem, 2017).

One test relates to RD. Nature of the test: Cytotoxicity in human RD cells assessed as inhibition of cell growth incubated for 72 hrs by MTT assay. The class given is functional, cell-based.
A further test relates to A549. The test is described as follows: Cytotoxicity in human A549 cells assessed as inhibition of cell growth incubated for 72 hrs by MTT assay. It is filed as functional, cell-based. The note with it: A549, 72 h.
A short description of test [1]: Cytotoxicity in human […] cells assessed as inhibition of cell growth incubated for 72 hrs by MTT assay. It is filed as functional, cell-based.
Another test deals with MCF7. The test is described as follows: Cytotoxicity in human MCF7 cells assessed as inhibition of cell growth incubated for 72 hrs by MTT assay. It is filed as functional, cell-based. To be noted: MCF7, 72 h.
For a further test, the system named is HEK293. Nature of the test: Cytotoxicity in human HEK293 cells assessed as inhibition of cell growth incubated for 72 hrs by MTT assay. It is filed as cell-based.
In test [2] the test system is Jurkat. The test is described as follows: Induction of apoptosis in human Jurkat cells assessed as viable cells level at 5 uM incubated for 24 hrs by annexin V and Alexa Fluor 488 dye staining based flow cytometry (reference value: 92.408%). The class given is functional.
Test [3] relates to Jurkat. The test is described as follows: Induction of apoptosis in human Jurkat cells assessed as apoptotic cells level at 5 uM incubated for 24 hrs by annexin V and Alexa Fluor 488 dye staining based flow cytometry (reference value: 4.928%). It is filed as functional.
The test system of test [4] is Jurkat. Nature of the test: Induction of apoptosis in human Jurkat cells assessed as necrotic cells level at 5 uM incubated for 24 hrs by annexin V and Alexa Fluor 488 dye staining based flow cytometry (reference value: 2.616%). It is filed as functional.
Test [5] has as its system Jurkat. The test is described as follows: Induction of apoptosis in human Jurkat cells assessed as damaged cells level at 5 uM incubated for 24 hrs by annexin V and Alexa Fluor 488 dye staining based flow cytometry (reference value: 0.048%). It is filed as functional.
For test [6], the system named is Jurkat. Nature of the test: Induction of apoptosis in human Jurkat cells assessed as damaged cells level at 5 uM incubated for 6 hrs by annexin V and Alexa Fluor 488 dye staining based flow cytometry (reference value: 0.07%). It is filed as functional.
Test [7] has as its system Jurkat. Nature of the test: Induction of apoptosis in human Jurkat cells assessed as necrotic cells level at 5 uM incubated for 24 hrs by annexin V and Alexa Fluor 488 dye staining based flow cytometry (reference value: 2.04%). The class given is functional.
Test [8] concerns Jurkat. The test is described as follows: Induction of apoptosis in human Jurkat cells assessed as viable cells level at 5 uM incubated for 24 hrs by annexin V and Alexa Fluor 488 dye staining based flow cytometry (reference value: 95.27%). The class given is functional.
In test [9] the test system is Jurkat. The test is described as follows: Induction of apoptosis in human Jurkat cells assessed as apoptotic cells level at 5 uM incubated for 24 hrs by annexin V and Alexa Fluor 488 dye staining based flow cytometry (reference value: 2.62%). It is filed as functional.
Another test concerns Venturia inaequalis. The test is described as follows: Fungicidal activity against Venturia inaequalis grown under potato-saccharose agar assessed as inhibition of mycelial radial growth at 30 mg/l incubated for 72 hrs. It is filed as functional. To be noted: read-out: GI.
The test system of another test is Rhizoctonia solani. The test is described as follows: Fungicidal activity against Rhizoctonia solani grown under potato-saccharose agar assessed as inhibition of mycelial radial growth at 30 mg/l incubated for 72 hrs. The class given is functional. The note with it: read-out: GI.
A further test has as its system Fusarium oxysporum. The test is described as follows: Fungicidal activity against Fusarium oxysporum grown under potato-saccharose agar assessed as inhibition of mycelial radial growth at 30 mg/l incubated for 72 hrs. The note with it: read-out: GI. The class given is functional.
Another test deals with Fusarium verticillioides. Nature of the test: Fungicidal activity against Fusarium moniliforme grown under potato-saccharose agar assessed as inhibition of mycelial radial growth at 30 mg/l incubated for 72 hrs. The class given is functional. To be noted: read-out: GI.
The next test deals with Bipolaris sorokiniana. The test is described as follows: Fungicidal activity against Bipolaris sorokiniana grown under potato-saccharose agar assessed as inhibition of mycelial radial growth at 30 mg/l incubated for 72 hrs. The class given is functional. The note with it: read-out: GI.
The subject of a further test is Sclerotinia sclerotiorum. Nature of the test: Fungicidal activity against Sclerotinia sclerotiorum grown under potato-saccharose agar assessed as inhibition of mycelial radial growth at 30 mg/l incubated for 72 hrs. The note with it: read-out: GI. It is filed as functional.
The mark [10] stands for this setting: Homo sapiens, HEK293, 72 h, read-out: IC50.

Where only a bound is given, the exact number is not on record here.

As to `CCN1C(=O)N(CC)C2C1NC(=S)N2/N=C/C=C/c1ccccc1OC` (stereo not drawn), the concentration for half-maximal inhibition (IC50) in the test on RD is 0.25 µM; in the test with A549, 0.61 µM; in test [1], 17.5 µM; with MCF7, > 100 µM; in the test with HEK293 (setting [10]) it was 86.1 µM. The Activity with Jurkat [2] amounted to 50.468%; with Jurkat [5], 0.076%; with Jurkat [6], 0.1%; in the test on Jurkat [7], 2.82%. The values for the Apoptotic cells in the test with Jurkat [3] and with Jurkat [9] were 36.66% and 3.02%, respectively. In addition, the Necrotic cells in the test with Jurkat [4] is given as 12.796%. For the same compound, the Viable cells in the test with Jurkat [8] is recorded as 94.06%. For the same compound, the inhibition of growth at 30 µg/mL with Venturia inaequalis is 29%; in the test on Rhizoctonia solani it was 52%; in the test with Fusarium oxysporum it was 21%; in the test with Fusarium verticillioides, 37%; with Bipolaris sorokiniana, 38%; in the test with Sclerotinia sclerotiorum, 10%.

On to `CCN1C(=O)N(c2ccccc2)C2NC(=S)N(/N=C/C=C/c3ccccc3OC)C21` (stereo not drawn), for which the IC50 in the test with RD is 45.9 µM; with A549, > 100 µM; in test [1], 2.12 µM; with MCF7 it was 79.1 µM; in the test with HEK293 (setting [10]), 57.5 µM. Moreover, the inhibition of growth at 30 µg/mL turned out to be 0% in the test on Venturia inaequalis; 17% in the test with Rhizoctonia solani; 1% with Fusarium oxysporum; 19% with Fusarium verticillioides; 0% in the test with Bipolaris sorokiniana; 12% with Sclerotinia sclerotiorum.

For `CCN1C(=O)N(CC)C2C1N=C(SC)N2/N=C/C=C/c1ccccc1` (stereo not drawn), the IC50 was 24 µM in the test with RD; 21.4 µM in the test on A549; 5.47 µM in test [1]; 46.6 µM in the test on MCF7; 151 µM in the test on HEK293 (setting [10]). The inhibition of growth at 30 µg/mL in the test on Venturia inaequalis was found to be 13%; with Rhizoctonia solani, 60%; with Fusarium oxysporum it was 38%; in the test on Fusarium verticillioides it was 37%; in the test on Bipolaris sorokiniana, 49%; with Sclerotinia sclerotiorum, 11%.

On to `CC[C@@]1(O)C(=O)OCc2c1cc1n(c2=O)Cc2cc3ccccc3nc2-1` [CAMPTOTHECIN], for which the half-maximal inhibitory concentration (IC50) is 4.49 µM with RD; 8.87 µM in the test with A549; 12.3 µM in test [1]; 13.6 µM in the test with MCF7; 54.7 µM with HEK293 (setting [10]). For the same compound, the Activity with Jurkat [2] came out at 37.372%; with Jurkat [5], 0.132%; in the test with Jurkat [6] it was 0.12%; in the test with Jurkat [7], 3.53%. Moreover, the Apoptotic cells in the test on Jurkat [3] is recorded as 36.412%; in the test on Jurkat [9], 32.64%. Further, the Necrotic cells in the test on Jurkat [4] stood at 26.084%. In the test on Jurkat [8], the Viable cells came out at 63.71%.

In the case of `COc1ccccc1/C=C/C=N/N1C(=S)NC2C1N(C)C(=O)N2c1ccccc1` (stereo not drawn), the IC50 in the test on RD was 0.02 µM; with A549, > 100 µM; in test [1], 0.012 µM; with MCF7 it was 0.26 µM; with HEK293 (setting [10]), 0.23 µM. In addition, the Activity with Jurkat [2] is 56.076%; in the test with Jurkat [5], 0.136%; with Jurkat [6], 0.14%; in the test with Jurkat [7], 2.39%. For the same compound, the Apoptotic cells stood at 26.98% with Jurkat [3] and 3.1% in the test on Jurkat [9]. Besides, in the test with Jurkat [4], the Necrotic cells was determined as 16.808%. The Viable cells in the test on Jurkat [8] came out at 94.37%.

`CN1C(=O)N(C)C2C1NC(=S)N2/N=C/C=C/c1ccccc1[N+](=O)[O-]` (stereo not drawn): the IC50 with RD is 32.4 µM; with A549, 2.72 µM; in test [1] it was 3.76 µM; in the test on MCF7, 1.76 µM; in the test with HEK293 (hek293), “Not Active”. Moreover, the Activity in the test with Jurkat [2] was determined as 56.128%; in the test with Jurkat [5], 0.088%; with Jurkat [6], 0.06%; in the test with Jurkat [7], 2.16%. Besides, the figures for the Apoptotic cells with Jurkat [3] and in the test with Jurkat [9] were 34.62% and 3.18%, respectively. Also, the Necrotic cells in the test on Jurkat [4] turned out to be 9.164%. For the same compound, the Viable cells with Jurkat [8] came to 94.6%.

For `CCN1C(=O)N(CC)C2C1N=C(SC)N2/N=C/C=C/c1ccccc1OC` (stereo not drawn), the half-maximal inhibitory concentration (IC50) was determined as 7.97 µM in the test on RD; 4.79 µM in the test on A549; 1.09 µM in test [1]; 34.6 µM in the test with MCF7; 145 µM with HEK293 (setting [10]). In addition, the inhibition of growth at 30 µg/mL in the test on Venturia inaequalis was 20%; in the test on Rhizoctonia solani, 65%; in the test on Fusarium oxysporum it was 51%; with Fusarium verticillioides, 42%; in the test with Bipolaris sorokiniana it was 47%; in the test with Sclerotinia sclerotiorum it was 23%.

For `CCN1C(=O)N(CC)C2C1NC(=S)N2/N=C/C=C/c1ccccc1` (stereo not drawn), the concentration for half-maximal inhibition (IC50) in the test with RD amounted to 2.25 µM; with A549, 6.53 µM; in test [1], 4.38 µM; in the test on MCF7, 36.1 µM; in the test with HEK293 (setting [10]), 42.1 µM. Besides, the inhibition of growth at 30 µg/mL in the test with Venturia inaequalis was determined as 12%; in the test with Rhizoctonia solani, 42%; with Fusarium oxysporum, 36%; in the test on Fusarium verticillioides, 41%; in the test on Bipolaris sorokiniana, 19%; in the test with Sclerotinia sclerotiorum it was 3%.

With `CCN1C(=O)N(CC)C2C1NC(=O)N2/N=C/C=C/c1ccccc1` (stereo not drawn), the IC50 with RD is 2.02 µM; in the test with A549, 44.3 µM; in [1], 18.3 µM; with MCF7 it was 83.2 µM; in the test on HEK293 (hek293), “Not Active”.

On to `CCN1C(=O)N(CC)C2C1NC(=S)N2/N=C/C=C/c1ccccc1[N+](=O)[O-]` (stereo not drawn), for which the IC50 in the test with RD was 15.2 µM; in the test with A549, > 100 µM; in [1], 7.71 µM; with MCF7, 43.9 µM; in the test on HEK293 (setting [10]), 19.3 µM.

For the compound `CN1C(=O)N(c2ccccc2)C2NC(=S)N(/N=C/C=C/c3ccccc3)C21` (stereo not drawn), the IC50 in the test on RD was 1.69 µM; in the test on A549 it was > 100 µM; in test [1], 12.1 µM; in the test with MCF7, > 100 µM; in the test with HEK293 (setting [10]) it was 167 µM.

Turning to `CCSC1=NC2C(N(CC)C(=O)N2CC)N1/N=C/C=C/c1ccccc1[N+](=O)[O-]` (stereo not drawn), the half-inhibitory concentration (IC50) was 2.45 µM in the test with RD; > 100 µM in the test on A549; 5.07 µM in test [1]; 30.7 µM in the test on MCF7; 221 µM in the test with HEK293 (setting [10]). For the same compound, the inhibition of growth at 30 µg/mL in the test on Venturia inaequalis came out at 10%; in the test on Rhizoctonia solani, 44%; with Fusarium oxysporum it was 12%; in the test with Fusarium verticillioides it was 22%; in the test with Bipolaris sorokiniana, 39%; in the test with Sclerotinia sclerotiorum, 12%.
